Entries after “also recorded” stand apart in the source; their conditions may differ. Ends that are not written are not given here.
How the values were obtained:
[1] = Colorimetric (xylenol orange) determination of Zn^2+ removal by peptide coacervation; conditions: peptide 1.0 mg/mL, mean ± SE
Experimental: Colorimetric analyses of cadmium ions (Cd^2+) were carried out to evaluate the number of metal ions absorbed into the coacervation phase of the peptides by using a spectral photometer (JASCO V-660)[45]. […] The peptide solutions were incubated at 4 ℃ for 3, 6, or 12 h and then at 60 ℃ for 1.5 h to separate into the lower coacervation phase from the upper equilibrium solution phase. After incubation, the peptide solution was immediately centrifuged at room temperature for 2 min (6,200 rpm) to remove aggregates. An aliquot of 333 µL of supernatant of the equilibrium solution phase was added to 600 µL of acetate buffer solution (pH5.4) including 67 μM of XO and incubated for 10 min. Subsequently, the concentrations of Cd^2+ or Zn^2+ were determined by measuring the absorbance at 575 nm or 550 nm, respectively, which corresponds to the absorbance of the metal-XO complex. The amount of metal ions absorbed in the peptide solution was determined by the calibration line, which was prepared in the same manner by using a series of standard CdCl2 or ZnCl2 aqueous solutions of known concentrations. […] The statistical significance of the difference between the concentration of each metal ion in the supernatant and the control solution was determined using the Student's t-test. […]

[2] = Colorimetric (xylenol orange) determination of Cd^2+ removal by peptide coacervation; conditions: peptide 1.0 mg/mL; for Concentration of metal ion in the supernatant: Cd^2+ (0.236 mM CdCl2), Tris-HCl (50.0 mM Tris, 599 mM NaCl, pH 8.0), at least three measurements; for Concentration of metal ion in the supernatant / Removal efficiency: mean ± SE; for Removal efficiency: Cd^2+, versus control without peptide
Experimental: Colorimetric analyses of cadmium ions (Cd^2+) were carried out to evaluate the number of metal ions absorbed into the coacervation phase of the peptides by using a spectral photometer (JASCO V-660)[45]. […] The peptide solutions were incubated at 4 ℃ for 3, 6, or 12 h and then at 60 ℃ for 1.5 h to separate into the lower coacervation phase from the upper equilibrium solution phase. After incubation, the peptide solution was immediately centrifuged at room temperature for 2 min (6,200 rpm) to remove aggregates. An aliquot of 333 µL of supernatant of the equilibrium solution phase was added to 600 µL of acetate buffer solution (pH5.4) including 67 μM of XO and incubated for 10 min. Subsequently, the concentrations of Cd^2+ or Zn^2+ were determined by measuring the absorbance at 575 nm or 550 nm, respectively, which corresponds to the absorbance of the metal-XO complex. The amount of metal ions absorbed in the peptide solution was determined by the calibration line, which was prepared in the same manner by using a series of standard CdCl2 or ZnCl2 aqueous solutions of known concentrations. The homogeneity of variances between the concentration of each metal ion in the supernatant and the control solution was confirmed using the F test. The statistical significance of the difference between the concentration of each metal ion in the supernatant and the control solution was determined using the Student's t-test. Results were considered statistically significant at P values of ≤ 0.01.

[3] = Turbidity measurement of AADAAC-(FPGV)4 in Tris-HCl buffer pH 8.4 with or without CdCl2 / NaCl; format: physicochemical; conditions: for Tt: turbidity at 400 nm, mean ± SE, at least three measurements
Experimental: This hexapeptide sequence strongly and selectively binds to cadmium above pH 6.0, whereas this peptide releases metal ions below pH 4.0[51]. […] To assess the self-assembly property, turbidity measurements of AADAAC-(FPGV)4 were carried out under the same conditions as described above (Table 2 and Fig. 8). First, AADAAC-(FPGV)4 was dissolved to a concentration of 10 mg/mL in Tris–HCl buffer (pH 8.4) instead of phosphate buffer (pH 7.4), considering its use as a metal scavenging agent under basic conditions. Under these conditions, the Tt of AADAAC-(FPGV)4 was 41.6 ± 1.0 ℃ at a peptide concentration of 10 mg/mL. Since Tt tended to increase with the proportion of hydrophilic residues in the peptide, the self-assembling ability of AADAAC-(FPGV)4 was weakened compared with that of (FPGV)4, owing to the presence of hydrophilic Asp and Cys residues in the AADAAC sequence conjugated to (FPGV)4[34]. On the other hand, in the presence of Cd^2+, AADAAC-(FPGV)4 was insoluble in the solution. Therefore, the binding of the AADAAC sequence to Cd^2+ ions was thought to contribute to the enhanced self-assembly of AADAAC-(FPGV)4 in the presence of the metal ions. […] This characteristic of AADAAC-(FPGV)4 was similar to that of AADAAC-(FPGVG)4, which we previously reported. Subsequently, to verify whether this peptide can be used as a metal recovery agent at a lower peptide concentration, turbidity measurement using a low-concentration peptide solution (0.5 mg/mL, 0.236 mM) was performed. […] Thus, turbidity was measured in Tris–HCl buffer (50.0 mM Tris, 0.236 mM CdCl2, pH 8.4) containing 0.9% NaCl (154 mM, equivalent to saline), because it has been reported that salts such as NaCl increase the self-association and decrease the Tt of ELPs[52]. […] Owing to this drastic change in water solubility in the presence and absence of cadmium ions, AADAAC-(FPGV)4 was considered to be useful as a Cd^2+-selective metal-scavenging agent.
Turbidity measurements were performed in accordance with previous reports. The temperature-dependent self-assembling properties of the ELP analogues were evaluated using a JASCO V-660 spectral photometer (JASCO Co., Tokyo, Japan). Peptide sample solutions of different concentrations (2.0, 5.0, 10, 20, 30, or 50 mg/mL) were prepared by dissolving each peptide (except for AADAAC-(FPGV)n) in phosphate buffer (27.4 mM Na2HPO4, 17.8 mM NaH2PO4, pH 7.4). […] Turbidity was measured at 400 nm with increasing or decreasing temperature at a rate of 0.5 ℃/min from 5 ℃. The concentration of each sample solution was measured at least three times. […]

[4] = RP-UPLC retention time, used as measure of peptide hydrophobicity; format: physicochemical; conditions: RP-UPLC-MS; chromatographic
Experimental: Peptide synthesis was carried out using the conventional solid-phase peptide synthesis procedure (see supplementary information). The synthesized peptides were purified using RP-HPLC. The purity and molecular weight of each peptide were confirmed using RP-UPLC-MS (Table S1 and Fig. S1). […]
Retention times of each peptide were determined by RP-UPLC-MS.

[5] = Dynamic light scattering (DLS) size distribution of coacervates; format: physicochemical; conditions: 10 to 50 ℃ in 10 ℃ steps; phosphate buffer pH 7.4; peptide concentrations as in Fig. 3 (2.0-50 mg/mL)
Experimental: The distribution of the particle size in the truncated ELP analogue solution was analyzed via DLS using Zetasizernano ZS (Malvern Instruments Ltd., Worcestershire, U.K.) in a measurement cell ZEN0112 (Malvern Instruments Ltd.)[33]. Peptide samples of different concentrations (2.0, 10, 20, 30, or 50 mg/mL) were prepared by dissolving each peptide in phosphate buffer (27.4 mM Na2HPO4, 17.8 mM NaH2PO4, pH 7.4) and filtered using the Millex-LG filter (pore size 0.2 µm, Merck Millipore) before measurement. DLS analysis was performed by increasing the temperature at 10 ℃ intervals from 10 to 50 ℃. Measurement duration was selected automatically. Parameter dataset “protein” (dataset: refractive index, 1.450; absorption, 0.001) was used as the material parameter, and parameter dataset “water” (dataset: refractive index, 1.330; viscosity, 0.8872) was chosen as the dispersant parameter. Attenuation was selected automatically. Each concentration was measured at least three times.

[6] = Turbidity measurement (phase transition temperature Tt, coacervation) in phosphate buffer pH 7.4; format: physicochemical; conditions: turbidity at 400 nm, heating 0.5 ℃/min from 5 ℃, mean ± SE, at least three measurements
Experimental: Turbidity measurements were performed in accordance with previous reports. The temperature-dependent self-assembling properties of the ELP analogues were evaluated using a JASCO V-660 spectral photometer (JASCO Co., Tokyo, Japan). Peptide sample solutions of different concentrations (2.0, 5.0, 10, 20, 30, or 50 mg/mL) were prepared by dissolving each peptide (except for AADAAC-(FPGV)n) in phosphate buffer (27.4 mM Na2HPO4, 17.8 mM NaH2PO4, pH 7.4). AADAAC-(FPGV)4 was dissolved in Tris–HCl buffer solution (50.0 mM Tris, at pH 8.4 or 50.0 mM Tris, 154 mM NaCl, at pH 8.4) to prepare sample solutions of a concentration of 0.5 or 10 mg/mL in the absence or presence of the equimolar amount of CdCl2. Turbidity was measured at 400 nm with increasing or decreasing temperature at a rate of 0.5 ℃/min from 5 ℃. The concentration of each sample solution was measured at least three times. The self-assembling property was described by the phase transition temperature (Tt), which is the temperature at which the turbidity of the solution reaches half the maximum value.

[7] = Optical microscopy of peptide aggregates with image analysis of particle size; format: physicochemical; conditions: peptide 10 mg/mL, phosphate buffer pH 7.4
Experimental: The morphology of the coacervates of (FPGVG)4, (FPGV)4, and (FPG)4 was observed using optical microscopy. Light field observation was performed using a Leica DM IL LED microscope (Leica Microsystems CMS, Wetzlar, Germany) equipped with HI PLAN 40 × (Leica Microsystems CMS) and HC PLAN 10 × (Leica Microsystems CMS) objectives. Each peptide was dissolved in phosphate buffer (27.4 mM Na2HPO4, 17.8 mM NaH2PO4, at pH 7.4) to a concentration of 10 mg/mL and applied on a glass slide. Sample imaging was performed below and above the Tt of each peptide using a Thermo Plate TP-CHSQM (Tokai Hit Co., Ltd., Shizuoka, Japan). Sample images above Tt were taken 3 min after the sample reached the target temperature. The details of the image analysis is shown in the Supplementary Information file.
Size distribution of coacervates of ELP analogues formed above the Tt was analyzed using optical microscopy images of each peptide. Image analysis was performed using Image J/Fiji (NIH, USA), an open-source image analysis software.^2 Spatial calibration was carried out using […] in original images. The images of peptide coacervates were converted to a binary image via the menu command Image > Type > 8-bit. Using "analyze particle" command, the Feret diameters of the particles within the image were measured.

[8] = Time-lapse thioflavin T (ThT) fluorescence assay; format: physicochemical; conditions: peptide 10 mg/mL; phosphate buffer pH 7.4; 15, 30 and 45 ℃; excitation 446 nm, emission 483 nm
Experimental: Thiofalvin T (ThT) fluorescence measurements were performed for (FPGVG)5, (FPGVG)4, (FPGV)5, and (FPGV)4. Each peptide was dissolved in phosphate buffer (27.4 mM Na2HPO4, 17.8 mM NaH2PO4, pH 7.4) to different concentrations (1.0 mg/mL for (FPGV)5, 5.0 mg/mL for (FPGVG)5 and (FPGV)4, and 10 mg/mL for (FPGVG)4, respectively). Then, 1 mM of ThT aqueous solution was added to each sample at a final ThT concentration of 25 μM) followed by incubation for 1 h at 4 °C. The fluorescence intensity was measured using a FP-8500 spectrofluorometer (JASCO Co.). The excitation was set at 446 nm and the emission was recorded at 483 nm. The fluorescence intensities of samples were monitored at 15 °C for 30 min. Then, the sample temperature was raised to 30 °C and the measurements were performed for another 30 min. The same measurement was also carried out at 45 °C for (FPGV)4.

Substance | Concentration of metal ion in the supernatant ([1]; Zn^2+ (0.236 mM ZnCl2), incubation 12 h at 4 ℃ then 60 ℃ 1.5 h, Tris-HCl (50.0 mM Tris, 599 mM NaCl, pH 8.0), xylenol orange absorbance 550 nm, at least three measurements) | Removal efficiency ([1]; Zn^2+, incubation 12 h, versus control without peptide) | Concentration of metal ion in the supernatant ([2]; incubation 3 h at 4 ℃ then 60 ℃ 1.5 h, xylenol orange absorbance 575 nm) | Concentration of metal ion in the supernatant ([2]; incubation 6 h at 4 ℃ then 60 ℃ 1.5 h) | Concentration of metal ion in the supernatant ([2]; incubation 12 h at 4 ℃ then 60 ℃ 1.5 h) | Removal efficiency ([2]; incubation 6 h) | Removal efficiency ([2]; incubation 12 h) | Cd^2+ concentration remaining in the supernatant ([2]; incubation for 12 h at 4 ℃ before heating) | Tt ([3]; peptide 0.5 mg/mL (0.236 mM), Tris-HCl buffer (50.0 mM Tris, pH 8.4) with 154 mM NaCl and 0.236 mM CdCl2 (equimolar)) | Coacervation (in words) ([3]; peptide 0.5 mg/mL (0.236 mM), Tris-HCl buffer (50.0 mM Tris, pH 8.4) with 154 mM NaCl, absence of Cd^2+) | Tt / solubility in the presence of Cd^2+ ([3]; peptide 10 mg/mL (4.71 mM), Tris-HCl buffer (50.0 mM Tris, pH 8.4) with 4.71 mM CdCl2) | Tt ([3]; peptide 10 mg/mL (4.71 mM), Tris-HCl buffer (50.0 mM Tris, pH 8.4), no additive, 0.5 ℃/min) | UPLC retention time (measure of hydrophobicity) [4] | Temperature-dependent particle size by DLS (in words) [5] | Tt, phase transition temperature ([6]; peptide 5.0 mg/mL, phosphate buffer pH 7.4, half-maximal turbidity) | Tt, phase transition temperature ([6]; peptide 10 mg/mL, phosphate buffer (27.4 mM Na2HPO4, 17.8 mM NaH2PO4, pH 7.4), Tt = temperature at half-maximal turbidity) | Morphology of aggregates (optical microscopy, in words) [7] | Particle size of coacervates (optical microscopy image analysis, Feret diameter) ([7]; above Tt ((FPGVG)4 40 °C, (FPGV)4 25 °C), ImageJ/Fiji) | ThT fluorescent intensity versus temperature (in words) [8]
AADAACFPGVFPGVFPGVFPGV-NH2 [AADAAC-(FPGV)4, H-AADAAC-(FPGV)4-NH2] | 4.4 ± 0.008 ppm | 75.3 ± 0.001% | 6.8 ± 0.11 ppm | 2.5 ± 0.49 ppm | 1.3 ± 0.046 ppm | 90.9 ± 0.018% | 95.1 ± 0.002% | 4.9% | 13.8 ± 0.1 °C | did not show coacervation | insoluble; also recorded: Not dissolved | 41.6 ± 1.0 °C | 2.496 min | – | – | – | – | – | –
FPGVGFPGVGFPGVGFPGVG-NH2 [(FPGVG)4, reference compound] | – | – | – | – | – | – | – | – | – | – | – | – | 2.251 min | formed sub-micron particles below Tt, which grew into micrometer-sized particles above Tt | 47.5 ± 0.3 °C | 33.8 ± 0.3 °C | spherical aggregates | about 1 µm | significantly elevated at 45 °C
